# Measured values from patent US20230338356A1, “TREATMENT OF AUTOIMMUNE SKIN DISEASE” (Aslan Pharmaceuticals Pte Ltd, priority 2022, published 2023).
# Key:
# C3H/HeJ mice = experiment: Hair coverage in alopecia areata (AA) skin-graft mouse model; type: in vivo; details: 150 or 300 mg/kg/day oral gavage once daily, week 8 time point (10 weeks after engraftment), vs vehicle
# Description: The C3H/HeJ mouse strain is known to spontaneously develop alopecia (AA) at a low frequency over a prolonged time frame. Transplantation of AA-affected skin from a C3H/HeJ mouse to unaffected C3H/HeJ recipients will induce the development of AA in nearly 100% of recipients over 4-8 weeks. Accordingly, to produce the AA mouse model, AA-affected C3H/HeJ skin was grafted onto groups of unaffected C3H/HeJ mice. The following treatment groups (n=10 per treatment group) were tested: • 1. Vehicle 0.5% methylcellulose (negative control) • 2. 150 mg/kg/day farudodstat • 3. 300 mg/kg/day farudodstat Treatments were administered once daily by oral gavage starting 2 weeks after engraftment and concluded after 12 weeks (84 days) of treatment. Photographs were taken at baseline, and every 4 weeks until the end of study Ventral hair growth was scored based on the photographs. Any mouse that had >98% hair coverage was classified as ‘no hair loss’.
# MHC Class I = experiment: MHC-I immunostaining of cultured human hair follicles after CD3/CD28 activation; type: cell-based; details: 70 or 140 nM farudodstat + 25 μg/ml CD3/CD28, vs CD3/CD28 alone
# Description: (§1) Human hair follicle samples were obtained after informed after informed, written patient consent and ethics committee approval (University of Muenster 2015-602-f-S) and the Comite de Bioetica de la Universidad Fernando Pessoa Canarias (03 (2020-06-22)). This study was conducted according to the Declaration of Helsinki principles.
# Cryosections of cultured human hair follicles were immunostained, using a monoclonal mouse antibody against human MHC-I (DAKO, Cat. R7000, clone W6/32). Fluorescent images were acquired using the Keyence BZ-X810 inverted microscope and images were analysed using ImageJ software.
# (§2) Human hair follicles (HF) were cultured on Day 0 in 48-well plates (1 HF per […]) at 37° C. with 5% CO2 in a media William's E media+RPMI (Gibco, Life Technologies) supplemented with 10 ng/ml hydrocortisone (Sigma Aldrich), 10 μg/ml insulin (Sigma Aldrich), 2 mM L-glutamine (Sigma Aldrich), and 1% penicillin/streptomycin mix (Gibco).
# On Day 1, anagen VI HFs were selected for further culture. For quality control, only HFs that grew at least 3% from Day 0 to Day 1 were selected for continued experimentation,
# In order to induce hair follicle immune privilege collapse and to activate resident intra/perifollicular immune cells, the hair follicles were pre-treated with CD3/CD28. […]
# [1] = system: proliferating CD3+ T cells in human hair follicles; experiment: CD3/Ki-67 immunofluorescence of cultured human hair follicles after CD3/CD28 activation; type: cell-based; details: 70 or 140 nM farudodstat + 25 μg/ml CD3/CD28, vs CD3/CD28 alone
# Description: as §1
# Cryosections of cultured human hair follicles were immunostained, using antibodies against the human CD3 transmembrane protein of T-lymphocytes (THERMOFISHER, Cat. 15-0038-45, clone UCHT1) and Ki-67, which is a marker of proliferation (ABCAM. Cat. ab15580). Fluorescent images were acquired using the Keyence BZ-X810 inverted microscope and CD3 and double positive cells were counted in epithelium and mesenchyme along the entire hair follicle. The number of proliferative CD3+ T-cells is given as a total number of double positive cells per hair follicle.
# as §2
# On Day 1, anagen VI HFs were selected for further culture. For quality control, only HFs that grew at least 3% from Day 0 to Day 1 were selected for continued experimentation, […]
# Krt14-KitL* (SCF) mice = experiment: Vitiligo scoring in vitiligo mouse model; type: in vivo; details: 6 weeks (30 treatment days)
# PMEL T cell = experiment: Flow cytometry of PMEL T cell counts in tissues of vitiligo mouse model; type: in vivo
compound,measurement,setting,value
"COc1cccc(-c2cc(F)c(Nc3ncccc3C(=O)O)c(F)c2)c1 [farudodstat, 2-(3,5-difluoro-3′-methoxybiphenyl-4-ylamino) nicotinic acid]",mean % hair coverage,C3H/HeJ mice,slight improvement in % hair coverage compared to the mice treated with vehicle
same,MHC Class I expression levels in hair follicles,MHC Class I,decreased MHC Class I expression levels
same,CD3+ T cell expansion (% of proliferating T-cells in hair follicles),[1],T cell expansion was reduced
same,final mean vitiligo score,"Krt14-KitL* (SCF) mice; 75 mg/kg/day oral gavage, vs vehicle",improvement in vitiligo score compared to the vehicle treated control group
same,final mean vitiligo score,"Krt14-KitL* (SCF) mice; 150 mg/kg/day oral gavage, vs vehicle and vs 75 mg/kg/day",greater improvement in vitiligo score compared to the 75 mg/kg/day group
same,"mean PMEL count, 150 mg/kg/day compared to 75 mg/kg/day","PMEL T cell; 150 mg/kg/day oral gavage, end of experiment, flow cytometry",greater reduction in mean PMEL count compared to 75 mg/kg/day
same,"mean PMEL T cell count, dermis and epidermis","PMEL T cell; 75 and 150 mg/kg/day oral gavage, end of experiment, flow cytometry",reduction in mean Pmel T cell count
same,mean PMEL count in the spleen,"PMEL T cell; oral gavage, compared with anti-IFNγ 250 μg twice a week IP",reduction in mean PMEL count in the spleen that was even greater than that observed for anti-IFNγ
